Test results as given in patent US4492693A, “Benzothienylglycyl cephalosporin derivatives” (priority 1983, dated 1985).
Read-outs that look alike come from different tables or passages of the source.

What was measured:
Type in all cases: cell-based
H. influenzae = assay: Expanded Spectrum MIC (Table II); details: Haemophilus influenzae
Source text: (§1) A typical and preferred compound provided by this invention is 7-(3-benzothienyl)glycylamido-3-methyl-3-cephem-4-carboxylic acid, the compound illustrated in Example 9. The antibacterial activity of this compound has been determined in standard in vitro agar dilution assays against a variety of gram positive and gram negative microorganism. The following Tables present typical minimum inhibitory concentrations (MIC's) in μg/ml for several compounds of the invention when evaluated against the indicated microorganisms. MIC's for several known compounds are also presented for comparison.
(§2) Expanded Spectrum MIC (μg/ml)

Staph. epi [1] = assay: Expanded Spectrum MIC (Table II)
Source text: as §1, §2

Staph. aureus [2] = assay: Expanded Spectrum MIC (Table II); details: Staphylococcus aureus
Source text: as §1, §2

Strep. A = assay: Agar Dilution MIC (Table I); details: strain C203; read-out: Agar Dilution MIC
Staph. epi [3] = assay: Agar Dilution MIC (Table I); details: read-out: Agar Dilution MIC
Bacteroides corrodens = assay: Susceptibility of Anaerobic Bacteroides Isolates by the Agar-Dilution Method (Table III); details: Eikenella corrodens; strain 1874; readings 24 hrs. after incubation
Source text: as §1
(§3) Susceptibility of Anaerobic Bacteroides Isolates by the
(§4) Agar-Dilution Method MIC (μg/ml) readings 24 hrs. after incubation

Bacteroides fragilis = assay: as above; details: 24 h
Source text: as §1, §3, §4

[4] = test system: Bacteroides thetaiotaomicron; assay: as above; details: 24 h
Source text: as §1, §3, §4

H. influ. = assay: Agar Dilution MIC (Table I); details: read-out: Agar Dilution MIC
Klebsiella = assay: Agar Dilution MIC (Table I); details: Klebsiella, read-out: Agar Dilution MIC
E. coli = assay: Agar Dilution MIC (Table I); details: Escherichia coli
Staph. aureus [5] = assay: Agar Dilution MIC (Table I); details: Staphylococcus aureus, read-out: Agar Dilution MIC
Strep. D = assay: Agar Dilution MIC (Table I); details: read-out: Agar Dilution MIC
Source text: as §1
Agar Dilution MIC (μg/ml)

Strep. PN = assay: Agar Dilution MIC (Table I); details: strain PARK
[6] = strain 9, readings 24 hrs. after incubation
[7] = strain 103, readings 24 hrs. after incubation
[8] = strain 104, readings 24 hrs. after incubation
[9] = strain 106, readings 24 hrs. after incubation
[10] = strain 107, readings 24 hrs. after incubation
[11] = strain 108, readings 24 hrs. after incubation
[12] = strain 110, readings 24 hrs. after incubation
[13] = strain 111, readings 24 hrs. after incubation
[14] = strain 1877, readings 24 hrs. after incubation
[15] = strain 1438, readings 24 hrs. after incubation
[16] = strain 1900A, readings 24 hrs. after incubation

Measured: MIC

CC1=C(C(=O)O)N2C(=O)C(NC(=O)[C@H](N)c3csc4cc(F)ccc34)C2SC1 (stereo partly drawn) [Ex. 17, D-7-(6-Fluoro-3-benzothienyl)glycylamido-3-methyl-3-cephem-4-carboxylic acid]
16 µg/mL: Bacteroides corrodens | Bacteroides fragilis; [7]
4 µg/mL: Staph. epi [1]; strain EPI1 | Staph. epi [3]; strain EPI1 | Bacteroides fragilis; [6] | Bacteroides fragilis; [9] | Bacteroides fragilis; [11] | Bacteroides fragilis; [12]
8 µg/mL: Bacteroides fragilis; [10] | Bacteroides fragilis; [14] | [4]; [15] | Staph. aureus [5]; strain V41
0.25 µg/mL: H. influenzae; strain 1683 | Staph. epi [1]; strain 286
32 µg/mL: Bacteroides fragilis; [13] | [4]; [16]
128 µg/mL: Klebsiella; strain KAE | Klebsiella; strain X68 | E. coli; strain N10 | Strep. D; strain X66
64 µg/mL: H. influenzae; strain M366 | H. influenzae; strain R465 | H. influenzae; strain STEL | E. coli; strain EC14 | E. coli; strain TEM | Staph. aureus [5]; strain X400 | Strep. D; strain 2041
2 µg/mL: H. influenzae; strain C.L. | Staph. epi [1]; strain 269 | Staph. epi [1]; strain 270 | Staph. epi [3]; strain 222 | Bacteroides fragilis; [8] | H. influ.; strain C.L. | Klebsiella; strain X26
1 µg/mL: H. influenzae; strain 76 | H. influenzae; strain 169 | H. influenzae; strain 171 | H. influenzae; strain HESS | Staph. epi [1]; strain 285 | Staph. aureus [2]; strain S224 | Staph. aureus [2]; strain S225 | Staph. aureus [2]; strain S226 | Staph. aureus [2]; strain S227 | Staph. aureus [2]; strain S229 | Staph. aureus [2]; strain S230 | Staph. aureus [2]; strain S234 | Staph. aureus [2]; strain S237 | Staph. aureus [2]; strain S238 | Staph. aureus [2]; strain S239 | Staph. aureus [5]; strain X1.1
0.125 µg/mL: Strep. A
0.5 µg/mL: H. influenzae; strain 105 | H. influenzae; strain 158 | H. influenzae; strain 164 | H. influenzae; strain 312 | H. influenzae; strain 1930 | H. influenzae; strain 4842 | H. influenzae; strain M370 | H. influenzae; strain M371 | Staph. epi [1]; strain 219 | Staph. aureus [2]; strain S228 | Staph. aureus [2]; strain S231 | H. influ.; strain 76 | Strep. PN

CON=C(C(=O)NC1C(=O)N2C(C(=O)O)=C(C)CSC12)c1csc2cc(OC)ccc12 (stereo not shown) [Ex. 22]
1 µg/mL: H. influenzae; strain 76 | H. influenzae; strain 158 | H. influenzae; strain 164 | H. influenzae; strain 312 | H. influenzae; strain 1930 | H. influenzae; strain 4842 | H. influenzae; strain M370 | Staph. epi [1]; strain 286 | Staph. aureus [2]; strain S231 | Klebsiella; strain X26 | Staph. aureus [5]; strain X1.1
128 µg/mL: Klebsiella; strain KAE | Klebsiella; strain X68 | E. coli; strain N10 | E. coli; strain TEM
4 µg/mL: H. influenzae; strain C.L. | H. influenzae; strain HESS | Staph. epi [1]; strain 269 | Staph. epi [1]; strain 285 | Staph. aureus [2]; strain S229 | Staph. aureus [2]; strain S238 | Staph. epi [3]; strain 222
8 µg/mL: Staph. epi [1]; strain 270 | Staph. epi [3]; strain EPI1 | H. influ.; strain C.L. | Staph. aureus [5]; strain V41
16 µg/mL: Staph. epi [1]; strain EPI1
2 µg/mL: H. influenzae; strain 105 | H. influenzae; strain 169 | H. influenzae; strain 171 | H. influenzae; strain M371 | H. influenzae; strain R465 | Staph. epi [1]; strain 219 | Staph. aureus [2]; strain S224 | Staph. aureus [2]; strain S225 | Staph. aureus [2]; strain S226 | Staph. aureus [2]; strain S227 | Staph. aureus [2]; strain S228 | Staph. aureus [2]; strain S230 | Staph. aureus [2]; strain S234 | Staph. aureus [2]; strain S237 | Staph. aureus [2]; strain S239 | H. influ.; strain 76
64 µg/mL: H. influenzae; strain M366 | H. influenzae; strain STEL | E. coli; strain EC14 | Staph. aureus [5]; strain X400 | Strep. D; strain 2041 | Strep. D; strain X66
0.5 µg/mL: H. influenzae; strain 1683 | Strep. A | Strep. PN

CC1=C(C(=O)O)N2C(=O)C(NC(=O)[C@H](N)c3csc4cccc(F)c34)C2SC1 (stereo partly drawn) [Ex. 19, D-7-(4-Fluoro-3-benzothienyl)glycylamido-3-methyl-3-cephem-4-carboxylic acid]
4 µg/mL: H. influenzae; strain 76 | H. influenzae; strain 105 | H. influenzae; strain 158 | H. influenzae; strain 164 | H. influenzae; strain 169 | H. influenzae; strain 171 | H. influenzae; strain M370 | H. influenzae; strain M371 | Staph. aureus [2]; strain S224 | Staph. aureus [2]; strain S225 | Staph. aureus [2]; strain S226 | Staph. aureus [2]; strain S227 | Staph. aureus [2]; strain S228 | Staph. aureus [2]; strain S230 | Staph. aureus [2]; strain S234 | Staph. aureus [2]; strain S237 | H. influ.; strain 76 | Strep. PN
64 µg/mL: H. influenzae; strain M366 | H. influenzae; strain R465 | H. influenzae; strain STEL | Bacteroides fragilis; [13]
128 µg/mL: Klebsiella; strain KAE | Klebsiella; strain X68 | E. coli; strain EC14 | E. coli; strain N10 | E. coli; strain TEM | Strep. D; strain 2041 | Strep. D; strain X66
1 µg/mL: Strep. A
16 µg/mL: H. influenzae; strain 1930 | H. influenzae; strain C.L. | H. influenzae; strain HESS | Bacteroides fragilis; [8] | Bacteroides fragilis; [11] | [4]; [15] | H. influ.; strain C.L. | Klebsiella; strain X26
2 µg/mL: H. influenzae; strain 1683 | Staph. aureus [2]; strain S231
8 µg/mL: H. influenzae; strain 312 | H. influenzae; strain 4842 | Staph. aureus [2]; strain S229 | Staph. aureus [2]; strain S238 | Staph. aureus [2]; strain S239 | Bacteroides fragilis; [6] | Bacteroides fragilis; [9] | Bacteroides fragilis; [10] | Bacteroides fragilis; [12] | Bacteroides fragilis; [14]
32 µg/mL: Bacteroides corrodens | Bacteroides fragilis; [7] | [4]; [16]
